Data set [1] relates to Staphylococcus aureus. The conditions noted are these: against Staphylococcus aureus; cited from earlier work.
Data set [2] in a line: Stability / precipitation of vancomycin in sols. The format is physicochemical. The conditions noted are these: water-free sol prepared as described by Böttcher et al. An excerpt:
Vancomycin is a water-soluble drug. Sols with nominal vancomycin (Vancomycin-HCL, NovaPlus) concentrations of 5, 10, and 20% by weight were made by adding corresponding amounts of vancomycin dissolved in DI water to the sol. Although sols with various vancomycin concentrations were stable for several days, only freshly prepared mixtures were used for the application of the coatings.
Modification of the process of sol preparation was required to avoid the precipitation. It was achieved by adding water at the TEOS hydrolysis step. […] The sols with vancomycin concentrations varying from 3 to 30% by weight were stable over several days. The sols of modified compositions were successfully used for depositing vancomycin-loaded thin xerogel films to a Ti alloy substrate.

These results are taken from patent US7850994B1, “Xerogel films for the controlled release of pharmaceutically active molecules” (The Trustees of the University of Pennsylvania, priority 2005, dated 2010).

Where “and” joins values, the source holds several entries; their conditions need not be identical. Equal values may be shown once.

With `CN[C@H](CC(C)C)C(=O)N[C@H]1C(=O)N[C@@H](CC(N)=O)C(=O)N[C@H]2C(=O)N[C@H]3C(=O)N[C@H](C(=O)N[C@H](C(=O)O)c4cc(O)cc(O)c4-c4cc3ccc4O)[C@H](O)c3ccc(c(Cl)c3)Oc3cc2cc(c3O[C@@H]2O[C@H](CO)[C@@H](O)[C@H](O)[C@H]2O[C@H]2C[C@](C)(N)[C@H](O)[C@H](C)O2)Oc2ccc(cc2Cl)[C@H]1O` [vancomycin], the “Minimal Inhibitory Concentration (MIC)” value in data set [1] was 1.5 to 3 µg/mL and 1.5 to 3.12 µg/mL. For the same compound, the “precipitation on adding a water solution of vancomycin to a sol” value in data set [2] was “immediate precipitation of the drug in the sol”.
